Marks after values point to notes of the source that are not given here.
Columns and labels:
M. tuberculosis H37Rv = assay: Checkerboard synergism assay; assay type: cell-based, Mycobacterium tuberculosis; details: for MIC: Mycobacterium tuberculosis, H37RV, checkerboard, alone
Experimental: The synergism assays were carried out in 96-well plates with Middlebrook 7H9 medium supplemented with OADC.

[1] = test system: 60 human cancer cell lines; assay: NCI-60 screen (SRB), whole panel; assay type: cell-based; details: single dose 10 μM; for inhibition at 10 µM: Homo sapiens, mean over 60 cell lines, over 100% = cell death, read-out: Mean growth inhibition (GI) percentage
[2] = antibiotic in combination with 20a
[3] = antibiotic in combination with 20f

| Structure (SMILES) | melting point | inhibition at 10 µM [1] | further results |
| --- | --- | --- | --- |
| COc1ccc(C(=O)/C=C/c2ccc(C)cc2)cc1S(=O)(=O)NNC(=O)c1ccncc1 | 250 to 252 °C | – | – |
| COc1ccc(C2=NN(C=O)C(c3ccc(Cl)cc3)C2)cc1S(=O)(=O)Nc1cccnc1 (stereo not shown) | 241 to 243 °C | – | – |
| COc1cc(OC)c(S(N)(=O)=O)cc1C1=NN(C=O)C(c2ccc(Cl)cc2)C1 (stereo not shown) | 269 to 271 °C | – | – |
| COc1ccc(C2=NN(C(C)=O)C(c3ccc(Cl)cc3)C2)cc1S(N)(=O)=O (stereo not shown) | 229 to 232 °C | – | – |
| COc1ccc(C2=NN(C=O)C(c3ccc(Cl)cc3)C2)cc1S(=O)(=O)NNC(=O)c1ccncc1 (stereo not shown) | 156 to 158 °C | – | – |
| COc1cc(OC)c(S(=O)(=O)NNC(=O)c2ccncc2)cc1C1=NN(C=O)C(c2ccc(Cl)cc2)C1 (stereo not shown) | 166 to 168 °C | – | – |
| COc1ccc(C2=NN(C(C)=O)C(c3ccc(Cl)cc3)C2)cc1S(=O)(=O)NNC(=O)c1ccncc1 (stereo not shown) | 146 to 148 °C | – | – |
| COc1ccc(C2=NN(C(N)=S)C(c3ccc(Cl)cc3)C2)cc1S(=O)(=O)Nc1cccnc1 (stereo not shown) | 236 to 238 °C | – | – |
| COc1cc(OC)c(S(=O)(=O)NNC(=O)c2ccncc2)cc1C1=NN(C(N)=S)C(c2ccc(Cl)cc2)C1 (stereo not shown) | 180 to 182 °C | – | – |
| NCC[C@H](O)C(=O)N[C@@H]1C[C@H](N)[C@@H](O[C@H]2O[C@H](CN)[C@@H](O)[C@H](O)[C@H]2O)[C@H](O)[C@H]1O[C@H]1O[C@H](CO)[C@@H](O)[C@H](N)[C@H]1O [AMK, amikacin, reference compound] | – | – | MIC (M. tuberculosis H37Rv): 1.5 µg/mL; FICI Index (M. tuberculosis H37Rv; [2]): 2.00; MIC Combination (M. tuberculosis H37Rv; [2]): 1.5 µg/mL; FICI Index (M. tuberculosis H37Rv; [3]): 2.00; MIC Combination (M. tuberculosis H37Rv; [3]): 1.5 µg/mL |
| COc1cc(OC)c(S(N)(=O)=O)cc1C(C)=O [Compound 8b, 5-Acetyl-2,4-dimethoxybenzenesulfonamide] | – | – | antiproliferative activity (in words) [1]: low antiproliferative activity |
| COc1ccc(C(C)=O)cc1S(=O)(=O)Nc1cccnc1 [Compound 10, 5-Acetyl-2-methoxy-N-(pyridin-3-yl)benzenesulfonamide] | – | 3.21% | antiproliferative activity (in words) [1]: low antiproliferative activity |
| COc1cc(OC)c(S(=O)(=O)N(CCCl)CCCl)cc1C(C)=O [Compound 12, 5-Acetyl-N,N-bis(2-chloroethyl)-2,4-dimethoxybenzenesulfonamide] | – | – | antiproliferative activity (in words) [1]: low antiproliferative activity |
| COc1ccc(C(C)=O)cc1S(=O)(=O)NNC(=O)c1ccncc1 [Compound 14a, 5-Acetyl-N’-isonicotinoyl-2-methoxybenzenesulfonohydrazide] | – | 2.09% | antiproliferative activity (in words) [1]: low antiproliferative activity |
| COc1cc(OC)c(S(=O)(=O)NNC(=O)c2ccncc2)cc1C(C)=O [Compound 14b, 5-Acetyl-N’-isonicotinoyl-2,4-dimethoxybenzenesulfonohydrazide] | – | – | antiproliferative activity (in words) [1]: low antiproliferative activity |
| COc1ccc(C(=O)C=Cc2ccccc2)cc1S(=O)(=O)Nc1cccnc1 [Compound 16a, 5-Cinnamoyl-2-methoxy-N-(pyridin-3-yl)benzenesulfonamide] | 229 to 230 °C | 16.5% | – |
| COc1ccc(C(=O)/C=C/c2ccc(Cl)cc2)cc1S(=O)(=O)Nc1cccnc1 [Compound 16b, (E)-5-(3-(4-Chlorophenyl)acryloyl)-2-methoxy-N-(pyridin-3-yl)benzenesulfonamide] | 256 to 258 °C | 17% | – |
| COc1ccc(C(=O)/C=C/c2ccc(C)cc2)cc1S(=O)(=O)Nc1cccnc1 [Compound 16c, (E)-2-Methoxy-N-(pyridin-3-yl)-5-(3-(p-tolyl)acryloyl)benzenesulfonamide] | 231 to 234 °C | 12.2% | – |
| COc1ccc(/C=C/C(=O)c2ccc(OC)c(S(=O)(=O)Nc3cccnc3)c2)cc1 [Compound 16d, (E)-2-Methoxy-5-(3-(4-methoxyphenyl)acryloyl)-N-(pyridin-3-yl)benzenesulfonamide] | 228 to 230 °C | 10.2% | – |

| Structure (SMILES) | melting point | inhibition at 10 µM [1] | further results |
| --- | --- | --- | --- |
| COc1ccc(C(=O)/C=C/c2cc(OC)c(OC)c(OC)c2)cc1S(=O)(=O)Nc1cccnc1 [Compound 16e, (E)-2-Methoxy-N-(pyridin-3-yl)-5-(3-(3,4,5-trimethoxyphenyl)acryloyl)benzenesulfonamide] | 239 to 241 °C | 7.7% | – |
| COc1ccc(C(=O)/C=C/c2ccc3c(c2)OCO3)cc1S(=O)(=O)Nc1cccnc1 [Compound 16f, (E)-5-(3-(Benzo[d][1,3]dioxol-5-yl)acryloyl)-2-methoxy-N-(pyridin-3-yl)benzenesulfonamide] | 220 to 223 °C | 12.9% | – |
| COc1ccc(/C=C/C(=O)c2cc(S(N)(=O)=O)c(OC)cc2OC)cc1 [Compound 17d, (E)-2,4-Dimethoxy-5-(3-(4-methoxyphenyl)acryloyl)benzenesulfonamide] | 215 to 218 °C | 30% | – |
| COc1cc(OC)c(S(N)(=O)=O)cc1C(=O)/C=C/c1cc(OC)c(OC)c(OC)c1 [Compound 17e, (E)-2,4-Dimethoxy-5-(3-(3,4,5-trimethoxyphenyl)acryloyl)benzenesulfonamide] | 253 to 256 °C | 24.7% | – |
| COc1cc(OC)c(S(=O)(=O)N(CCCl)CCCl)cc1C(=O)C=Cc1ccccc1 [Compound 18a, N,N-bis(2-chloroethyl)-5-cinnamoyl-2,4-dimethoxybenzenesulfonamide] | 184 to 186 °C | – | – |
| COc1cc(OC)c(S(=O)(=O)N(CCCl)CCCl)cc1C(=O)/C=C/c1ccc(Cl)cc1 [Compound 18b, (E)-N,N-bis(2-Chloroethyl)-5-(3-(4-chlorophenyl)acryloyl)-2,4-dimethoxybenzenesulfonamide] | 186 to 187 °C | – | – |
| COc1cc(OC)c(S(=O)(=O)N(CCCl)CCCl)cc1C(=O)/C=C/c1ccc(C)cc1 [Compound 18c, (E)-N,N-bis(2-Chloroethyl)-2,4-dimethoxy-5-(3-(p-tolyl)acryloyl)benzenesulfonamide] | 186 to 189 °C | – | – |
| COc1ccc(/C=C/C(=O)c2cc(S(=O)(=O)N(CCCl)CCCl)c(OC)cc2OC)cc1 [Compound 18d, (E)-N,N-bis(2-Chloroethyl)-2,4-dimethoxy-5-(3-(4-methoxyphenyl)acryloyl)benzenesulfonamide] | 168 to 171 °C | – | – |
| COc1cc(OC)c(S(=O)(=O)N(CCCl)CCCl)cc1C(=O)/C=C/c1ccc2c(c1)OCO2 [Compound 18f, (E)-5-(3-(Benzo[d][1,3]dioxol-5-yl)acryloyl)-N,N-bis(2-chloroethyl)-2,4-dimethoxybenzenesulfonamide] | 193 to 196 °C | – | – |
| COc1ccc(C(=O)/C=C/c2ccc(Cl)cc2)cc1S(=O)(=O)NNC(=O)c1ccncc1 [Compound 19b, (E)-5-(3-(4-Chlorophenyl)acryloyl)-N’-isonicotinoyl-2-methoxybenzenesulfonohydrazide] | 242 to 244 °C | 0.96% | – |
| COc1ccc(C(=O)/C=C/c2cc(OC)c(OC)c(OC)c2)cc1S(=O)(=O)NNC(=O)c1ccncc1 [Compound 19e, (E)-N’-Isonicotinoyl-2-methoxy-5-(3-(3,4,5-trimethoxyphenyl)acryloyl)benzenesulfonohydrazide] | 202 to 204 °C | 7.7% | – |
| COc1ccc(C(=O)/C=C/c2ccc3c(c2)OCO3)cc1S(=O)(=O)NNC(=O)c1ccncc1 [Compound 19f, (E)-5-(3-(Benzo[d][1,3]dioxol-5-yl)acryloyl)-N’-isonicotinoyl-2-methoxybenzenesulfonohydrazide] | 245 to 248 °C | 0.48% | – |
| COc1cc(OC)c(S(=O)(=O)NNC(=O)c2ccncc2)cc1C(=O)/C=C/c1ccc(Cl)cc1 [Compound 20b, (E)-5-(3-(4-Chlorophenyl)acryloyl)-N’-isonicotinoyl-2,4-dimethoxybenzenesulfonohydrazide] | 196 to 198 °C | 20% | – |
| COc1cc(OC)c(S(=O)(=O)NNC(=O)c2ccncc2)cc1C(=O)/C=C/c1ccc(C)cc1 [Compound 20c, (E)-N’-Isonicotinoyl-2,4-dimethoxy-5-(3-(p-tolyl)acryloyl)benzenesulfonohydrazide] | 195 to 197 °C | 26.9% | – |
| COc1ccc(C2=NN(C=O)C(c3ccc(Cl)cc3)C2)cc1S(N)(=O)=O (stereo not shown) [Compound 22a, 5-(5-(4-Chlorophenyl)-1-formyl-4,5-dihydro-1H-pyrazol-3-yl)-2-methoxybenzenesulfonamide] | 230 to 231 °C | 2.15% | – |
| COc1cc(OC)c(S(=O)(=O)N(CCCl)CCCl)cc1C1=NN(C=O)C(c2ccc(Cl)cc2)C1 (stereo not shown) [Compound 22d, N,N-bis(2-Chloroethyl)-5-(5-(4-chlorophenyl)-1-formyl-4,5-dihydro-1H-pyrazol-3-yl)-2,4-dimethoxybenzenesulfonamide] | 222 to 224 °C | – | – |
| COc1cc(OC)c(S(=O)(=O)N(CCCl)CCCl)cc1C1=NN(C(N)=S)C(c2ccc(Cl)cc2)C1 (stereo not shown) [Compound 27e, 3-(5-(N,N-bis(2-Chloroethyl)sulfamoyl)-2,4-dimethoxyphenyl)-5-(4-chlorophenyl)-4,5-dihydro-1H-pyrazole-1-carbothioamide] | 196 to 198 °C | – | – |
| C[C@H]1COc2c(N3CCN(C)CC3)c(F)cc3c(=O)c(C(=O)O)cn1c23 [Levofloxacin, levofloxacin, reference compound] | – | – | MIC (M. tuberculosis H37Rv): 0.5 µg/mL; FICI Index (M. tuberculosis H37Rv; [2]): 1.25; MIC Combination (M. tuberculosis H37Rv; [2]): 0.5 µg/mL; FICI Index (M. tuberculosis H37Rv; [3]): 1.00; MIC Combination (M. tuberculosis H37Rv; [3]): 0.25 µg/mL |
| CO[C@H]1/C=C/O[C@@]2(C)Oc3c(C)c(O)c4c(O)c(c(/C=N/N5CCN(C)CC5)c(O)c4c3C2=O)NC(=O)/C(C)=C\C=C\[C@H](C)[C@H](O)[C@@H](C)[C@@H](O)[C@@H](C)[C@H](OC(C)=O)[C@@H]1C [RIF, rifampicin, reference compound] | – | – | MIC Combination (M. tuberculosis H37Rv; [2]): 0.048 µg/mL; FICI Index (M. tuberculosis H37Rv; [3]): 0.37 *; MIC Combination (M. tuberculosis H37Rv; [3]): 0.048 µg/mL |

— PMC9604400, “Synthesis, Anticancer and Antitubercular Properties of New Chalcones and Their Nitrogen-Containing Five-Membered Heterocyclic Hybrids Bearing Sulfonamide Moiety” (International Journal of Molecular Sciences, 2022)
